Target: T1, Glucocorticoid Receptor (GR) (Homo sapiens, UniProt P04150)
T1 construct: purchased Invitrogen P2893
T1 sequence (P04150 1-777): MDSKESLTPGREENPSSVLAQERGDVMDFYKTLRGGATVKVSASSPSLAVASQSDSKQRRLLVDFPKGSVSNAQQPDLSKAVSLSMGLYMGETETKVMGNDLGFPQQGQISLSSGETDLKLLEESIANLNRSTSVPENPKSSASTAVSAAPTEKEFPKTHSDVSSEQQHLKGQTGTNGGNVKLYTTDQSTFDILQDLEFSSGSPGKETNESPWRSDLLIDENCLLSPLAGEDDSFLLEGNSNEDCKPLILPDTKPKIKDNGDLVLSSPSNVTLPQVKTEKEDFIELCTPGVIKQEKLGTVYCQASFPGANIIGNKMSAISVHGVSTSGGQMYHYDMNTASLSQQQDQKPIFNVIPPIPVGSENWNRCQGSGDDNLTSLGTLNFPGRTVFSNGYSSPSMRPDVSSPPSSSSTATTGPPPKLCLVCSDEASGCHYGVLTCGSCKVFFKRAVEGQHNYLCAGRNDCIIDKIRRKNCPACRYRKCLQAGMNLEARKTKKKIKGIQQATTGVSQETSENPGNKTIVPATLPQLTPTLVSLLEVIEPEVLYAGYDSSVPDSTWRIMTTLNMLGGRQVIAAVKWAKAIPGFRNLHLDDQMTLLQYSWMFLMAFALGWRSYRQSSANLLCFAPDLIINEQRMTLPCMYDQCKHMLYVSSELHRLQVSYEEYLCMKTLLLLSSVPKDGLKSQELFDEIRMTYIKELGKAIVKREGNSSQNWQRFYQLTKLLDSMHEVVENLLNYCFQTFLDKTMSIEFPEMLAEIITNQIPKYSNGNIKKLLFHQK
Test: GR Fluorescence Polarization Assay (PolarScreen Glucocorticoid Receptor Competitor Assay, Red)
Conditions: IC50 class ranges, read-out: GR binding
Procedure: GR Fluorescence Polarization Assay
Fluorescence polarization assays were carried out using the PolarScreen™ Glucocorticoid Receptor Competitor Assay, Red from Invitrogen (P2893). The assay buffer was prepared according to the manufacturer's protocol and used to dilute the fluorescent glucocorticoid and GR. Compounds were prepared and serial diluted 1:4 in DMSO. Compound, fluorescent glucocorticoid and GR were added in a final volume of 20 μL and incubated overnight at 4° C. Fluorescent polarization was measured on the PerkinElmer Envision®.

| SMILES | IC50 [µM] |
| --- | --- |
| CCn1nc(-c2ccccn2)c2c1NCCSC2c1ccc(C(=O)Nc2cccnc2C)cc1C (single isomer, unassigned) [M.61, 4-(1-ethyl-3-(pyridin-2-yl)-4,6,7,8-tetrahydro-1H-pyrazolo[3,4-e][1,4]thiazepin-4-yl)-3-methyl-N-(2-methylpyridin-3-yl)benzamide] | 0.1 to 1 |
| CCn1nc(-c2ccccn2)c2c1N[C@@H](C)CS[C@@H]2c1ccc(C#CCN(C)C)cc1C (single isomer, unassigned) [M.64, 3-(4-(1-ethyl-7-methyl-3-(pyridin-2-yl)-4,6,7,8-tetrahydro-1H-pyrazolo[3,4-e][1,4]thiazepin-4-yl)-3-methylphenyl)-N,N-dimethylprop-2-yn-1-amine] | 1 to 10 |
| Cc1cc(C#CCO)ccc1[C@H]1SC[C@@H](C)Nc2c1c(-c1ccccn1)nn2C (single isomer, unassigned) [M.69, 3-(4-(1,7-dimethyl-3-(pyridin-2-yl)-4,6,7,8-tetrahydro-1H-pyrazolo[3,4-e][1,4]thiazepin-4-yl)-3-methylphenyl)prop-2-yn-1-ol] | 0.1 to 1 |
| Cc1cc(Br)ccc1C1CCC(=O)Nc2c1c(C)nn2C (stereo not shown) [AA.2] | 1 to 10 |
| CCn1nc(-c2ccccn2)c2c1NC(=O)CCC2c1ccc(Br)cc1C (stereo not shown) [AA.3] | < 0.1 |
| Cc1ccc(Oc2ccc(C3SCCNc4c3c(C)nn4C)cc2)cc1 (stereo not shown) [D.75] | 1 to 10 |
| Cc1ccc(Oc2ccc(C3SC(C)(C)CNc4c3c(C)nn4C)cc2)cc1 (stereo not shown) [D.78] | 0.1 to 1 |
| COc1cccc(C2SCCNc3c2c(C)nn3C)c1 (stereo not shown) [D.81] | 1 to 10 |
| Cn1nc(-c2cccnc2)c2c1NCCSC2c1ccc(Cl)cc1Cl (stereo not shown) [D.86] | 1 to 10 |
| Cc1ccc(-c2nn(C)c3c2C(c2ccc(Cl)cc2Cl)SCCN3)cc1 (stereo not shown) [D.87] | 0.1 to 1 |
| Cn1nc(-c2ccc(C(C)(C)C)cc2)c2c1NCCSC2c1ccc(Cl)cc1Cl (stereo not shown) [D.88] | 1 to 10 |
| Cn1nc(-c2ccc(Cl)c(Cl)c2)c2c1NCCSC2c1ccc(Cl)cc1Cl (stereo not shown) [D.89] | 0.1 to 1 |
| Cn1nc(C(F)(F)F)c2c1NCCSC2c1ccc(Cl)cc1Cl (stereo not shown) [D.91] | 1 to 10 |
| Cn1nc(-c2ccc(F)cc2F)c2c1NCCSC2c1ccc(Cl)cc1Cl (stereo not shown) [D.93] | 0.1 to 1 |
| Cn1nc(-c2ccc(OC(F)(F)F)cc2)c2c1NCCSC2c1ccc(Cl)cc1Cl (stereo not shown) [D.95] | 1 to 10 |
| Cc1nn(C)c2c1C(c1ccccn1)SCCN2 (stereo not shown) [D.96] | > 10 |
| COc1ccc(C2SCCNc3c2c(C)nn3C)cc1 (stereo not shown) [D.97] | 1 to 10 |
| COc1ccccc1C1SCCNc2c1c(C)nn2C (stereo not shown) [D.98] | > 10 |

| SMILES | IC50 [µM] |
| --- | --- |
| Cc1nn(C)c2c1C(c1cccnc1)SCCN2 (stereo not shown) [D.99] | > 10 |
| Cc1nn(C)c2c1C(c1ccc(Cl)cc1)SC(CCO)CN2 (stereo not shown) [D.100] | < 0.1 |
| Cc1nn(C)c2c1C(c1cc[nH]n1)SCCN2 (stereo not shown) [D.102] | > 10 |
| COC(=O)c1ccc(C2SC(C)(C)CNc3c2c(C)nn3C)c(C)c1 (stereo not shown) [E.4, methyl 3-methyl-4-(1,3,6,6-tetramethyl-7,8-dihydro-4H-pyrazolo[3,4-e][1,4]thiazepin-4-yl)benzoate] | 0.1 to 1 |
| Cc1cc(C#N)ccc1C1SC(C)CNc2c1c(C)nn2C (stereo not shown) [G.11] | 1 to 10 |
| Cc1ccc(C(=O)Nc2cccnc2C)cc1C1SC(C)(C)CNc2c1c(C1CC1)nn2C (stereo not shown) [H.2] | > 10 |
| Cc1cc(Br)ccc1[C@H]1SC[C@@H](C)Nc2c1c(-c1nnco1)nn2C [M.63, 2-(4-(4-bromo-2-methylphenyl)-1,7-dimethyl-4,6,7,8-tetrahydro-1H-pyrazolo[3,4-e][1,4]thiazepin-3-yl)-1,3,4-oxadiazole] | 0.1 to 1 |
| Cc1cc(C(=O)Nc2cccnc2C)ccc1C1CCC(=O)Nc2c1c(C)nn2C (stereo not shown) [O.1, 4-(1,3-Dimethyl-7-oxo-1,4,5,6,7,8-hexahydropyrazolo[3,4-b]azepin-4-yl)-3-methyl-N-(2-methylpyridin-3-yl)benzamide] | 1 to 10 |
| CCn1nc(-c2ccccn2)c2c1N[C@@H](C)CS[C@H]2c1ccc(CCC(C)(C)N)cc1C [Q.1] | 0.1 to 1 |
| CCn1nc(-c2ccccn2)c2c1NCCSC2c1ccc(C(=O)Nc2nnn[nH]2)cc1C (stereo not shown) [S.6] | 0.1 to 1 |
| CCn1nc(-c2ccccn2)c2c1NCCSC2c1ccc(C(=O)Nc2onc(C)c2C#N)cc1C (stereo not shown) [S.7] | 0.1 to 1 |
| Cn1nc(-c2ccccn2)c2c1NCCSC2c1ccc(-c2cnn(CCN3CCOCC3)c2)cc1Cl (stereo not shown) [U.5] | 1 to 10 |
| Cn1nc(-c2ccccn2)c2c1NCCSC2c1ccc(-c2cnn(C3CCCCO3)c2)cc1Cl (stereo not shown) [U.6] | 0.1 to 1 |
| Cn1nc(-c2ccccn2)c2c1NCCSC2c1ccc(-c2cnc3nccnc3c2)cc1Cl (stereo not shown) [U.11] | 1 to 10 |
| Cn1nc(-c2ccccn2)c2c1NCCSC2c1ccc(-c2cncc(C(=O)N3CCOCC3)c2)cc1Cl (stereo not shown) [U.12] | 0.1 to 1 |
| CC(=O)N1CCN(c2ccc(-c3ccc(C4SCCNc5c4c(-c4ccccn4)nn5C)c(Cl)c3)cn2)CC1 (stereo not shown) [U.14] | 1 to 10 |
| Cn1nc(-c2ccccn2)c2c1NCCSC2c1ccc(-c2cnn(CCC#N)c2)cc1Cl (stereo not shown) [U.16] | 0.1 to 1 |

Further lines, results first:

| IC50 [µM] | SMILES |
| --- | --- |
| 1 to 10 | COC(=O)c1ccc(C2SCCNc3c2c(-c2ccccn2)nn3C)cc1 (stereo not shown) [E.2, methyl 4-[1-methyl-3-(2-pyridyl)-4,6,7,8-tetrahydropyrazolo[3,4-e][1,4]thiazepin-4-yl]benzoate] |
| 1 to 10 | COC(=O)c1ccc(-c2nn(C)c3c2C(c2ccc(Cl)cc2Cl)SCCN3)nc1 (stereo not shown) [E.6, methyl 6-[4-(2,4-dichlorophenyl)-1-methyl-4,6,7,8-tetrahydropyrazolo[3,4-e][1,4]thiazepin-3-yl]pyridine-3-carboxylate] |
| 0.1 to 1 | CNC(=O)c1ccc(C2SCCNc3c2c(-c2ccccn2)nn3C)c(Cl)c1 (stereo not shown) [I.2] |
| 1 to 10 | CNC(=O)c1ccc(-c2nn(C)c3c2C(c2ccc(Cl)cc2Cl)SCCN3)nc1 (stereo not shown) [I.3] |
| 1 to 10 | Cn1nc(-c2ccc(C(N)=O)cn2)c2c1NCCSC2c1ccc(Cl)cc1Cl (stereo not shown) [I.5] |
| 1 to 10 | Cn1nc(-c2ccccn2)c2c1NCCSC2c1ccc(-c2cncc(S(C)(=O)=O)c2)cc1Cl (stereo not shown) [U.1, 4-(2-Chloro-4-(5-(methylsulfonyl)pyridin-3-yl)phenyl)-1-methyl-3-(pyridin-2-yl)-4,6,7,8-tetrahydro-1H-pyrazolo[3,4-e][1,4]thiazepine tris(trifluoroacetate)] |
| 1 to 10 | Cn1nc(-c2ccccn2)c2c1NCCSC2c1ccc(-c2cncnc2)cc1Cl (stereo not shown) [U.2] |
| 1 to 10 | Cn1nc(-c2ccccn2)c2c1NCCSC2c1ccc(-c2ccnnc2)cc1Cl (stereo not shown) [U.3] |
| 0.1 to 1 | Cn1nc(-c2ccccn2)c2c1NCCSC2c1ccc(-c2cncc(C#N)c2)cc1Cl (stereo not shown) [U.4] |
| 1 to 10 | Cn1nc(-c2ccccn2)c2c1NCCSC2c1ccc(-c2cncc(C(N)=O)c2)cc1Cl (stereo not shown) [U.7] |
| 1 to 10 | CNC(=O)c1cncc(-c2ccc(C3SCCNc4c3c(-c3ccccn3)nn4C)c(Cl)c2)c1 (stereo not shown) [U.8] |
| 0.1 to 1 | Cn1nc(-c2ccccn2)c2c1NCCSC2c1ccc(-c2ccncc2C#N)cc1Cl (stereo not shown) [U.9] |
| 0.1 to 1 | Cn1nc(-c2ccccn2)c2c1NCCSC2c1ccc(-c2cnccc2C#N)cc1Cl (stereo not shown) [U.10] |
| 0.1 to 1 | Cn1nc(-c2ccccn2)c2c1NCCSC2c1ccc(-c2ccc(S(C)(=O)=O)nc2)cc1Cl (stereo not shown) [U.13] |
| 1 to 10 | COCCn1cc(-c2ccc(C3SCCNc4c3c(-c3ccccn3)nn4C)c(Cl)c2)cn1 (stereo not shown) [U.15] |
| 0.1 to 1 | Cn1nc(-c2ccccn2)c2c1NCCSC2c1ccc(-c2cnn(CC(N)=O)c2)cc1Cl (stereo not shown) [U.17] |
| 0.1 to 1 | Cn1nc(-c2ccccn2)c2c1NCCSC2c1ccc(-c2cnn(CCC(N)=O)c2)cc1Cl (stereo not shown) [U.18] |

Source: patent US9150592B2, “Heterocyclic nuclear hormone receptor modulators” (AbbVie Inc., priority 2012, dated 2015)
